≈ marks a conversion by molar mass, not a printed value. Read-outs that look alike come from different tables or passages of the source.
Columns and labels:
[1] = tested on: Influenza virus A/WSN/33 (H1N1); test: microbe, parasite or virus in culture; format: cell-based; conditions: 72 h
in vitro = conditions: bovine
A/91/N796 (H3N2) = test: Anti-viral activities against subtypes of influenza A and B (plaque number); format: cell-based; conditions: Influenza A virus, H3N2, MDCK, 72 h
A/Kumamoto/5/67 (H2N2) = test: microbe, parasite or virus in culture; format: cell-based; conditions: Influenza A virus, H2N2, MDCK, 72 h
A/Osaka/5/70 (H3N2) = test: Anti-viral activities against subtypes of influenza A and B (plaque number); format: cell-based; conditions: Influenza A virus, H3N2, MDCK, 72 h
A/WSN/33 (H1N1) = test: as above; format: cell-based; conditions: Influenza A virus, MDCK, 72 h
B/91N759 = test: as above; format: cell-based; conditions: Influenza B virus, MDCK, 72 h
[2] = Cytotoxicity for MDCK cells; format: cell-based; conditions: dog, Cell: MDCK, no virus
Procedure: As in the measurement of anti-viral activity, samples were added to the cells, and incubated with 50 µl of culture medium instead of the viral dilution. The results are expressed as CC50 which is defined as the concentration of the compound at which 50% of the cells are killed due to the toxicity of the compound.
MDCK cells (derived from dog kidney) were cultured on 12-well plates using E-MEM supplemented by 10% fetal bovine serum. To each well was added 250 µl each of a viral dilution prepared by 10-fold serial dilution with E-MEM, followed by incubation for one hour under 5% CO2 at 37 °C. After removal of the viral solution, one ml of E-MEM containing 0.8% agarose, 0.5% bovine serum albumin and 2 µg/ml trypsin, and an appropriately diluted test compound was added. The plate was inverted, and incubated for 3 days under 5% CO2 at 37 °C. The number of plaques formed was counted, and the IC50 value, which is the concentration of the compound at which the number of plaques decreases by 50% compared to that of control which lacks the test compound, was determined. As in the above section 2), CC50 values for MDCK cells were determined.

[3] = viral strain: Influenza virus A/WSN/33 (H1N1), Cell: MDBK, […], 3 days, read-out: IC50

Structure (SMILES)	IC50 [1, 3]	CC50 (in vitro)	further results
C[C@H]1CC[C@H]2C(C)(C)[C@@H](NC(=O)Nc3ccccc3)CC[C@]23Oc2c(c(O)cc4c2CNC4=O)C[C@]13C [Compound (47e), (6aR, 7S, 9aS, 11S, 13aS)-2,3,6,6a, 7,8,9,9a, 10, 11, 12, 13-dodecahydro-5-hydroxy-6a, 7, 10, 10-tetramethyl-11-(3-phenylureido)-3-oxo-1H-benzo[8,8a][1]benzopyrano[2,3-e]isoindole]	25 ng/mL (≈ 0.0496 µM)	> 10 µg/mL	–
C[C@H]1CC[C@H]2C(C)(C)[C@@H](O)[C@@H](O)C[C@]23Oc2c(c(O)cc4c2CNC4=O)C[C@]13C [Compound (50a), (6a R, 7 S, 9a S, 11 R, 12 S, 13a S)-2,3,6,6a, 7,8,9,9a, 10, 11, 12, 13-dodecahydro-5,11,12-trihydroxy-6a, 7, 10, 10-tetramethyl-3-oxo-1H-benzo[8,8a][1]benzopyrano[2,3-e]isoindole]	4 ng/mL (≈ 0.00996 µM)	> 40 µg/mL	–
CC(=O)O[C@H]1C[C@@]23Oc4c(c(O)cc5c4CNC5=O)C[C@]2(C)[C@@H](C)CC[C@H]3C(C)(C)[C@H]1O [Compound (50b), (6a R, 7 S, 9a S, 11 R, 12 S, 13a S)-12-acetoxy-2,3,6,6a,7,8,9,9a, 10, 11, 12, 13-dodecahydro-5,11-dihydroxy-6a, 7, 10, 10-tetramethyl-3-oxo-1H-benzo[8,8a][1]benzopyrano[2,3-e]isoindole]	10 ng/mL (≈ 0.0225 µM)	> 10 µg/mL	–
C[C@H]1CC[C@H]2C(C)(C)[C@@H](O)[C@@H](OC(=O)c3ccccc3)C[C@]23Oc2c(c(O)cc4c2CNC4=O)C[C@]13C [Compound (50c), (6a R, 7 S, 9a S, 11 R, 12 S, 13a S)-12-benzoyloxy-2,3,6,6a, 7,8,9,9a, 10, 11, 12, 13-dodecahydro-5,11-dihydroxy-6a, 7, 10, 10-tetramethyl-3-oxo-1H-benzo[8,8a][1]benzopyrano[2,3-e]isoindole]	50 ng/mL (≈ 0.0989 µM)	5 to 10 µg/mL (≈ 9.89 to 19.8 µM)	–
C[C@H]1CC[C@H]2C(C)(C)[C@@H](O)[C@@H](OS(C)(=O)=O)C[C@]23Oc2c(c(O)cc4c2CNC4=O)C[C@]13C [Compound (50d), (6a R, 7 S, 9a S, 11 R, 12 S, 13a S)-2,3,6,6a, 7,8,9,9a, 10, 11,12,13-dodecahydro-5,11-dihydroxy-6a, 7,10, 10-tetramethyl-12-methanesulfonyloxy-3-oxo-1H-benzo[8,8a][1]benzopyrano[2,3-e]isoindole]	1.6 ng/mL (≈ 0.00334 µM)	> 10 µg/mL	–
C[C@H]1CC[C@H]2C(C)(C)[C@@H](O)[C@@H](OS(=O)(=O)c3ccccc3)C[C@]23Oc2c(c(O)cc4c2CNC4=O)C[C@]13C [Compound (50e), (6a R, 7 S, 9a S, 11 R, 12 S, 13a S)-2,3,6,6a, 7,8,9,9a, 10, 11,12,13-dodecahydro-5,11-dihydroxy-6a, 7, 10, 10-tetramethyl-12-phenylsulfonyloxy-3-oxo-1H-benzo[8,8a][1]benzopyrano[2,3-e]isoindole]	1.6 to 3.2 ng/mL (≈ 0.00295 to 0.00591 µM)	> 10 µg/mL	–
C[C@H]1CC[C@H]2C(C)(C)C(=NO)CC[C@]23Oc2c(c(O)cc4c2CNC4=O)C[C@]13C [Compound (51a), (6a R, 7 S, 9a S, 13a S)-2,3,6,6a, 7,8,9,9a, 10, 11, 12, 13-dodecahydro-5-hydroxy-11-hydroxyimino-6a, 7, 10, 10-tetramethyl-3-oxo-1H-benzo[8,8a][1]benzopyrano[2,3-e]isoindole]	1.6 ng/mL (≈ 0.00402 µM)	> 10 µg/mL	–
CON=C1CC[C@@]23Oc4c(c(O)cc5c4CNC5=O)C[C@]2(C)[C@@H](C)CC[C@H]3C1(C)C [Compound (51b), (6a R, 7 S, 9a S, 13a S)-2,3,6,6a, 7,8,9,9a, 10, 11, 12, 13-dodecahydro-5-hydroxy-11-methoxyimino-6a, 7, 10, 10-tetramethyl-3-oxo-1H-benzo[8,8a][1]benzopyrano[2,3-e]isoindole]	3 ng/mL (≈ 0.00727 µM)	5 to 10 µg/mL (≈ 12.1 to 24.2 µM)	–
C[C@H]1CC[C@H]2C(C)(C)C(=NNC(N)=O)CC[C@]23Oc2c(c(O)cc4c2CNC4=O)C[C@]13C [Compound (51d), (6a R, 7 S, 9a S, 13a S)-2,3,6,6a, 7,8,9,9a, 10, 11, 12, 13-dodecahydro-5-hydroxy-6a, 7, 10, 10-tetramethyl-3-oxo-11-ureidoimino-1H-benzo[8,8a][1]benzopyrano[2,3-e]isoindole]	5 ng/mL (≈ 0.0113 µM)	> 10 µg/mL	–
C[C@H]1CC[C@H]2C(C)(C)C(=NN3CCOCC3)CC[C@]23Oc2c(c(O)cc4c2CNC4=O)C[C@]13C [Compound (51f), (6aR, 7S, 9aS, 13aS)-2,3,6,6a, 7,8,9,9a, 10, 11, 12, 13-dodecahydro-5-hydroxy-6a, 7, 10, 10-tetramethyl-11-(1-oxa-4-azacyclohex-4-yl)imino-3-oxo-1H-benzo[8,8a][1]benzopyrano[2,3-e]isoindole]	50 ng/mL (≈ 0.107 µM)	25 µg/mL (≈ 53.5 µM)	–
CC(=O)O[C@@H]1C(=NO)C[C@@]23Oc4c(c(O)cc5c4CNC5=O)C[C@]2(C)[C@@H](C)CC[C@H]3C1(C)C [Compound (53b), (6aR, 7S, 9aS, 11S, 13aS)-11-acetoxy-2,3,6,6a, 7,8,9,9a, 10, 11, 12, 13-dodecahydro-5-hydroxy-12-hydroxyimino-6a, 7, 10, 10-tetramethyl-3-oxo-1H-benzo[8,8a][1]benzopyrano[2,3-e]isoindole]	80 ng/mL (≈ 0.175 µM)	> 10 µg/mL	–
C[C@H]1CC[C@H]2C(C)(C)[C@@H](O)CC[C@]23Oc2c(c(OP(=O)(O)O)cc4c2CNC4=O)C[C@]13C.[Na] [Compound (59a), (6aR, 7S, 9aS, 11S, 13aS)-2,3,6,6a, 7,8,9,9a, 10, 11, 12, 13-dodecahydro-11-hydroxy-5-dihydroxyphosphinyloxy-6a, 7,10, 10-tetramethyl-3-oxo-1H-benzo[8,8a][1]benzopyrano[2,3-e]isoindole monosodium salt]	–	> 10 µg/mL	IC50 ([1]; H1N1|WSN, MDBK): 1 ng/mL
C[C@H]1CC[C@H]2C(C)(C)[C@H](O)CC[C@]23Oc2c(c(OP(=O)(O)O)cc4c2CNC4=O)C[C@]13C.[Na] [Compound (59b), (6a R, 7 S, 9a S, 11 R, 13a S)-2,3,6,6a, 7,8,9,9a, 10, 11, 12, 13-dodecahydro-11-hydroxy-5-dihydroxyphosphinyloxy-6a, 7, 10,10-tetramethyl-3-oxo-1H-benzo[8,8a][1]benzopyrano[2,3-e]isoindole monosodium salt]	–	> 10 µg/mL	IC50 ([1]; H1N1|WSN, MDBK): 1 ng/mL
C[C@H]1CC[C@H]2C(C)(C)C(=NO)CC[C@]23Oc2c(c(OP(=O)(O)O)cc4c2CNC4=O)C[C@]13C.[Na] [Compound (64), (6aR, 7S, 9aS, 13aS)-2,3,6,6a, 7,8,9,9a, 10, 11, 12, 13-dodecahydro-11-hydroxyimino-5-dihydroxyphosphinyloxy-6a, 7, 10, 10-tetramethyl-3-oxo 1H-benzo[8,8a][1]benzopyrano[2,3-e]isoindole monosodium salt]	–	> 10 µg/mL	IC50 ([1]; H1N1|WSN, MDBK): 1 ng/mL
C[C@@H]1NC(=O)c2cc(O)c3c(c21)O[C@@]12CC[C@H](O)C(C)(C)[C@@H]1CC[C@H](C)[C@@]2(C)C3 [Compound (67a), (1S, 6aR, 7S, 9aS, 11S, 13aS)-2,3,6,6a, 7,8,9,9a, 10, 11, 12, 13-dodecahydro-5, 11-dihydroxy-1,6a, 7, 10, 10-pentamethyl-3-oxo-1H-benzo[8,8a][1]benzopyrano[2,3-e]isoindole]	16 ng/mL (≈ 0.04 µM)	6.3 to 12.5 µg/mL (≈ 15.8 to 31.3 µM)	–
C[C@H]1NC(=O)c2cc(O)c3c(c21)O[C@@]12CC[C@H](O)C(C)(C)[C@@H]1CC[C@H](C)[C@@]2(C)C3 [Compound (67b), (1R, 6aR, 7S, 9aS, 11S, 13aS)-2,3,6,6a, 7,8,9,9a, 10, 11, 12, 13-dodecahydro-5, 11-dihydroxy-1,6a, 7, 10, 10-pentamethyl-3-oxo-1H-benzo[8,8a][1]benzopyrano[2,3-e]isoindole]	32 ng/mL (≈ 0.0801 µM)	25 to 50 µg/mL (≈ 62.6 to 125 µM)	–
C[C@H]1CC[C@H]2C(C)(C)[C@H](O)CC[C@]23Oc2c(c(O)cc4c2C(=O)NC4=O)C[C@]13C [Compound (70), (6aR, 7S, 9aS, 11R, 13aS)-2,3,6,6a, 7,8,9,9a, 10, 11, 12, 13-dodecahydro-5, 11-dihydroxy-6a, 7, 10, 10-tetramethyl-13-dioxo-1H-benzo[8,8a][1]benzopyrano[2,3-e]isoindole]	8 ng/mL (≈ 0.02 µM)	–	CC50 at 72 h (in vitro; mdbk cells): 12.5 to 25 µg/mL (≈ 31.3 to 62.6 µM)
C[C@H]1CC[C@H]2C(C)(C)[C@@H](O)CC[C@]23Oc2c(c(O)cc4c2CNC4=O)C[C@]13C [SQ-02-S5(2), (6a R, 7S, 9a S, 11 S, 13a S)-2,3,6,6a, 7,8,9,9a, 10, 11, 12, 13-dodecahydro-5, 11-dihydroxy-6a, 7, 10, 10-tetramethyl-3-oxo-1H-benzo[8,8a][1]benzopyrano[2,3-e]isoindole]	–	–	IC50 (A/91/N796 (H3N2)): 1 µg/mL (≈ 2.59 µM); IC50 (A/Kumamoto/5/67 (H2N2)): 0.1 to 1 µg/mL (≈ 0.259 to 2.59 µM); IC50 (A/Osaka/5/70 (H3N2)): 0.1 to 1 µg/mL (≈ 0.259 to 2.59 µM); IC50 (A/WSN/33 (H1N1)): 1 to 10 ng/mL (≈ 0.00259 to 0.0259 µM); IC50 (B/91N759): 1 µg/mL (≈ 2.59 µM); CC50 at 3 days [2]: 25 µg/mL (≈ 64.9 µM)

Reference: patent EP0855398B1, “SESQUITERPENE DERIVATIVES HAVING ANTIVIRAL ACTIVITY” (SHIONOGI & CO., LTD., priority 1995, dated 1997)
